This is an account of results in the kinase profiling compilation of Christmann-Franck et al. (2016).

SMILES strings stand for the structures.

Holding throughout (assay): Free Choice Kinase Assay Projects, Flashplate
For assay [1], the target named is AKT1 (human) (UniProt P31749). The conditions noted are these: compound 10.0 µM; ATP 3 µM.
Assay [2] has as its target AURKA (human) (UniProt O14965). As to conditions: compound 10.0 µM; ATP 10 µM.
Assay [3] deals with AURKB (human) (UniProt Q96GD4). As to conditions: compound 10.0 µM; ATP 10 µM.
Sequence of AURKB (human) (Q96GD4 whole entry, looked up): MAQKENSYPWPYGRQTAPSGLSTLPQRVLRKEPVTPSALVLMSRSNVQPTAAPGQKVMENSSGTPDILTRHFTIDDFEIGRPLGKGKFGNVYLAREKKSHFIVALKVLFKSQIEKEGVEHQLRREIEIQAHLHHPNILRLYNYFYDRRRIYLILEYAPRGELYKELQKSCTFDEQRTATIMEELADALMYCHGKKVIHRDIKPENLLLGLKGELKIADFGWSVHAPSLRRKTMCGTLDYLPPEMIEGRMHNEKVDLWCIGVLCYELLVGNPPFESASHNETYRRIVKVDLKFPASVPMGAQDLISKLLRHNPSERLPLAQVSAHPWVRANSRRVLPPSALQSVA
Assay [4] deals with AXL (human) (UniProt P30530). The conditions noted are these: compound 10.0 µM; ATP 0.3 µM.
Assay [5] addresses CDK2 CCNA2 (human) (UniProt P24941+P20248). As to conditions: compound 10.0 µM; ATP 0.3 µM.
The target in assay [6] is CDK4 CCND1 (human) (UniProt P11802+P24385). The conditions noted are these: compound 10.0 µM; ATP 3 µM.
Sequence of CDK4 CCND1 (human) (P11802 whole entry, looked up): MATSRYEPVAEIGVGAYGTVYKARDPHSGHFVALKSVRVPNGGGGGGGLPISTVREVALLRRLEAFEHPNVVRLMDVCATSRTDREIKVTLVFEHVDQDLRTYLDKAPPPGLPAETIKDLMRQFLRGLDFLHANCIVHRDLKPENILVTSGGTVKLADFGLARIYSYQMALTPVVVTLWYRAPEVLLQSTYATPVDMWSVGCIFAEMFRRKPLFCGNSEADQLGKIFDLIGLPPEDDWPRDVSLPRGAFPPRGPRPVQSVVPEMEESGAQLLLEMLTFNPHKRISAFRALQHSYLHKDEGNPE
Sequence of CDK4 CCND1 (human) (P24385 whole entry, looked up): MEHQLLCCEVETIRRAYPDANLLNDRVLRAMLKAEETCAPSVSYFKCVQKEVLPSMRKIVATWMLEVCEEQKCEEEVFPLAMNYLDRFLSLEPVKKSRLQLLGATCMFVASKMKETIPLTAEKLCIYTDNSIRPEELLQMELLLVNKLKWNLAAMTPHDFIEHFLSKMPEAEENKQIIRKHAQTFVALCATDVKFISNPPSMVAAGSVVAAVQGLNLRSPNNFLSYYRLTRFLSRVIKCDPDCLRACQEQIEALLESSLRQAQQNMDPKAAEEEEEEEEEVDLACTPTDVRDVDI
The target of assay [7] is CSNK2A1 (human) (UniProt P68400). As to conditions: compound 10.0 µM; ATP 0.1 µM.
Sequence of CSNK2A1 (human) (P68400 whole entry, looked up): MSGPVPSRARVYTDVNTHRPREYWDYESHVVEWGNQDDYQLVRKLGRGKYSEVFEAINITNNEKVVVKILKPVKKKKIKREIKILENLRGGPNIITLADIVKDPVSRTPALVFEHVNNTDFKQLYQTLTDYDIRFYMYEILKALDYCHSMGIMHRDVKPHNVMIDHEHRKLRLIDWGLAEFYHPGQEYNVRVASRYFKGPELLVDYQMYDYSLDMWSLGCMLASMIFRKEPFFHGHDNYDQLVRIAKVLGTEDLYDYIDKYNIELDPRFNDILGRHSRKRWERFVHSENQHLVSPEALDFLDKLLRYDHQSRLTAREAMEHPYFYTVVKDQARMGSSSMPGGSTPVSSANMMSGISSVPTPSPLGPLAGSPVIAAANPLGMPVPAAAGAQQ
Assay [8] deals with EGFR (human) (UniProt P00533). As to conditions: compound 10.0 µM; ATP 0.3 µM.
In assay [9] the target is EPHB4 (human) (UniProt P54760). As to conditions: compound 10.0 µM; ATP 1 µM.
Assay [10] deals with ERBB2 (human) (UniProt P04626). As to conditions: compound 10.0 µM; ATP 1 µM.
For assay [11], the target named is IGF1R (human) (UniProt P08069). The conditions noted are these: compound 10.0 µM; ATP 1 µM.
Sequence of IGF1R (human) (P08069 whole entry, looked up): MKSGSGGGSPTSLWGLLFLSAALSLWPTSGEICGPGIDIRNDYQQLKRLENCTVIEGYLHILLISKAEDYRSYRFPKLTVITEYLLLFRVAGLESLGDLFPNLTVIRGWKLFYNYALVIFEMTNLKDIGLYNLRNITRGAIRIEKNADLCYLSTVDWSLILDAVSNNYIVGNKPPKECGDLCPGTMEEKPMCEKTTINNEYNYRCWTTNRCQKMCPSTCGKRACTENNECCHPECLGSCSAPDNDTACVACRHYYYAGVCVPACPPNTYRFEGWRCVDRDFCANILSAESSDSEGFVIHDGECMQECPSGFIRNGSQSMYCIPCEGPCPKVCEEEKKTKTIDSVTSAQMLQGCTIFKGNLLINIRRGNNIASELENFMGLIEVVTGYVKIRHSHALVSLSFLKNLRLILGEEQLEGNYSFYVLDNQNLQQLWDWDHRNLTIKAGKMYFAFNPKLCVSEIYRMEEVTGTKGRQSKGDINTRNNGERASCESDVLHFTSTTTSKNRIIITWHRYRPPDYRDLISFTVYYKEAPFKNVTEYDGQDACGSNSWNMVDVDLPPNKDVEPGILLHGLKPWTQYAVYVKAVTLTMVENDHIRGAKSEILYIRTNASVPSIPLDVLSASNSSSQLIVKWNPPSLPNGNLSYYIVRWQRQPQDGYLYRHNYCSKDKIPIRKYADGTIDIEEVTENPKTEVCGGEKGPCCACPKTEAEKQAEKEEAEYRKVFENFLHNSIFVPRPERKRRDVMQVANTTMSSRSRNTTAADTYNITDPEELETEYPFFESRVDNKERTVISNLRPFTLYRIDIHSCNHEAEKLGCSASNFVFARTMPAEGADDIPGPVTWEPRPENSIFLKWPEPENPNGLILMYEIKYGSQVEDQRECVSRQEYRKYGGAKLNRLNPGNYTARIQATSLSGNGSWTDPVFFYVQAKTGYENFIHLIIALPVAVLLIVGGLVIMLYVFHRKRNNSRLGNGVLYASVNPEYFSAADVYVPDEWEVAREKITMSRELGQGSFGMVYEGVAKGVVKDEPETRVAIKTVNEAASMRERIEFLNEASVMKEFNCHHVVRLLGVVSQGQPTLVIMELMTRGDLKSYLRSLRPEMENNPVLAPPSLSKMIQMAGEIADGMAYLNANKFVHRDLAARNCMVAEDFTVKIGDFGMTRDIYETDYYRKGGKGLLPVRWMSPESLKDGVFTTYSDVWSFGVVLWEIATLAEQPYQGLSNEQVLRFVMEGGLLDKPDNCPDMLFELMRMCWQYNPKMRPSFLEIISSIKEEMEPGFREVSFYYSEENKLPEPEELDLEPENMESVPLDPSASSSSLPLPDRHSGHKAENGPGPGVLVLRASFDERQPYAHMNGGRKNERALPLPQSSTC
Assay [12] has as its target KDR (human) (UniProt P35968). As to conditions: compound 10.0 µM; ATP 1 µM.
Assay [13] concerns the target MAP3K8 (human) (UniProt P41279). As to conditions: compound 10.0 µM; ATP 3 µM.
Assay [14] has as its target MAPK10 (human) (UniProt P53779). The conditions noted are these: compound 10.0 µM; ATP 0.3 µM.
In assay [15] the target is MAPK14 (human) (UniProt Q16539). The conditions noted are these: compound 10.0 µM; ATP 1 µM.
Sequence of MAPK14 (human) (Q16539 whole entry, looked up): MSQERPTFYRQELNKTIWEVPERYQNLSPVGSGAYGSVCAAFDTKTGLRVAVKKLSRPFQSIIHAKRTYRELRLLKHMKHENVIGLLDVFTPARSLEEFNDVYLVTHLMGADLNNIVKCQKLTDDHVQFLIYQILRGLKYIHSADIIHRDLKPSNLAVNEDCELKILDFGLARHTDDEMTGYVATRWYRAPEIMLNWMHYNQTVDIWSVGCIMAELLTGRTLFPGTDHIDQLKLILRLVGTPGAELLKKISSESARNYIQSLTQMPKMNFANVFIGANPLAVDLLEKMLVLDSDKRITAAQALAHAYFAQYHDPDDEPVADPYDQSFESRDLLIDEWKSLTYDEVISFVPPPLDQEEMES
For assay [16], the target named is MET (human) (UniProt P08581). The conditions noted are these: compound 10.0 µM; ATP 0.3 µM.
For assay [17], the target named is NUAK1 (human) (UniProt O60285). The conditions noted are these: compound 10.0 µM; ATP 1 µM.
For assay [18], the target named is PDGFRB (human) (UniProt P09619). The conditions noted are these: compound 10.0 µM; ATP 0.3 µM.
Sequence of PDGFRB (human) (P09619 whole entry, looked up): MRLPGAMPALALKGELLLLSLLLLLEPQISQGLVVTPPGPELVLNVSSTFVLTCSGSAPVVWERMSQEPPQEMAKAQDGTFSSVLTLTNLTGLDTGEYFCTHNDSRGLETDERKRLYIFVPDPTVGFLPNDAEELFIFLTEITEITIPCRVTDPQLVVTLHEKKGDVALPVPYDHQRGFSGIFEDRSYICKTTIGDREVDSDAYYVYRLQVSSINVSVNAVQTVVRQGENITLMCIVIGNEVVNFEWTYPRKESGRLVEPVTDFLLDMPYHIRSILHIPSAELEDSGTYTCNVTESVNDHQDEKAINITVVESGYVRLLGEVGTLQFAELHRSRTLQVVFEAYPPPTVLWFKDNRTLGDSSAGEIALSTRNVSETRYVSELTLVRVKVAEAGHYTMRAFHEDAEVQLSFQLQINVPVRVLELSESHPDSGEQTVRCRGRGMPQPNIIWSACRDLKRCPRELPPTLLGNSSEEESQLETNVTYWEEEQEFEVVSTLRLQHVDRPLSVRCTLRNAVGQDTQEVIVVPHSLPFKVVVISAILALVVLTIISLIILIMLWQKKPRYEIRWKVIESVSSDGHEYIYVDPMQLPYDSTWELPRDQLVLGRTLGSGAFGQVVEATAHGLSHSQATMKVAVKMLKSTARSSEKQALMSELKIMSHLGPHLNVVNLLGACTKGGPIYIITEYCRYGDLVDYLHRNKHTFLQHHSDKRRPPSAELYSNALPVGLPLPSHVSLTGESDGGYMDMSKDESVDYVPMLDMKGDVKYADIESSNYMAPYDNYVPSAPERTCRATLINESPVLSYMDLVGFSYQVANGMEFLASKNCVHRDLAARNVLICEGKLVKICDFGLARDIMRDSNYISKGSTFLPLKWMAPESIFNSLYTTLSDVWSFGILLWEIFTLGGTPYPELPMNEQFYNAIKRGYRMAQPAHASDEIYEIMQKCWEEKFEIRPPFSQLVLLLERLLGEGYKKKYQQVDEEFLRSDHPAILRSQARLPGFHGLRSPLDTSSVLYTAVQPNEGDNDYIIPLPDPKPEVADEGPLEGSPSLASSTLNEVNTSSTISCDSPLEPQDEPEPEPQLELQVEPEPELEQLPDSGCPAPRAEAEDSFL
The target in assay [19] is PLK1 (human) (UniProt P53350). The conditions noted are these: compound 10.0 µM; ATP 1 µM.
Sequence of PLK1 (human) (P53350 whole entry, looked up): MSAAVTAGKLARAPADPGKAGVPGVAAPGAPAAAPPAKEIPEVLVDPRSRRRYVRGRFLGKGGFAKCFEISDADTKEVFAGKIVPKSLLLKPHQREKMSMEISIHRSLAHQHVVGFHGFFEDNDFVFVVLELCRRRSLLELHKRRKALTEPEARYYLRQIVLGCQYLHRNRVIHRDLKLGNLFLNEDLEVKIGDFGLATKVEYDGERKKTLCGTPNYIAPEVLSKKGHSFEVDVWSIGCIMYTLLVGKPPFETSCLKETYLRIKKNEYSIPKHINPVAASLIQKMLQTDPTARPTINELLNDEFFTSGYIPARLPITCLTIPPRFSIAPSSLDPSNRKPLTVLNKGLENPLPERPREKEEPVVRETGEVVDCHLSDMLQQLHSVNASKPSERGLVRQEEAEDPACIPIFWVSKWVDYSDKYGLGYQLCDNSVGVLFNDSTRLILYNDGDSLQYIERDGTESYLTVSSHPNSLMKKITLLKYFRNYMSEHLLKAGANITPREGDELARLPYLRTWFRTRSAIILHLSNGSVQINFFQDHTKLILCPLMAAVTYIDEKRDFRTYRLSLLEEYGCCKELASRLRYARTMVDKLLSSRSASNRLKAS
Assay [20] addresses PLK4 (human) (UniProt O00444). The conditions noted are these: compound 10.0 µM; ATP 0.3 µM.
Assay [21] deals with PTK2 (human) (UniProt Q05397). The conditions noted are these: compound 10.0 µM; ATP 1 µM.
The target in assay [22] is SRC (human) (UniProt P12931). The conditions noted are these: compound 10.0 µM; ATP 0.3 µM.
The target in assay [23] is TEK (human) (UniProt Q02763). As to conditions: compound 10.0 µM; ATP 1 µM.

As for `CSc1nc(-c2ccnc(F)c2)c(-c2ccc(F)cc2)[nH]1`, the residual activity worked out at 102% in [1]; 93% in assay [2]; 90% in assay [3]; 101% in assay [4]; 125% in [5]; 132% in assay [6]. Moreover, the residual activity turned out to be 98% in assay [7]; 23% in [8]; 61% in assay [9]; 18% in assay [10]; 96% in assay [11]; 39% in assay [12]. Also, the residual activity in assay [13] is 105%; in assay [14] it was 48%; in assay [15], 2%; in [16], 91%; in [17], 105%; in assay [18] it was 81%. The residual activity came out at 85% in [19]; 76% in assay [20]; 100% in assay [21]; 60% in assay [22]; 71% in assay [23].
As to `Oc1cccc(CSc2nc(-c3ccncc3)c(-c3ccc(F)cc3)[nH]2)c1`, the residual activity was determined as 144% in [1]; 52% in [2]; 55% in assay [3]; 76% in assay [4]; 126% in assay [5]; 121% in assay [6]. Also, the residual activity is 95% in assay [7]; 3% in [8]; 35% in assay [9]; 2% in assay [10]; 79% in [11]; 7% in assay [12]. The residual activity in assay [13] stood at 91%; in [14], 17%; in assay [15] it was 2%; in assay [16], 58%; in [17] it was 121%; in assay [18] it was 35%. The residual activity turned out to be 103% in assay [19]; 42% in [20]; 88% in [21]; 12% in assay [22]; 18% in assay [23].
As to `Fc1ccc(-c2[nH]c(SCc3ccccc3)nc2-c2ccnc(Cl)c2)cc1`, the residual activity amounted to 75% in [1]; 62% in assay [2]; 47% in [3]; 62% in assay [4]; 43% in [5]; 48% in [6]. Moreover, the residual activity is 95% in assay [7]; 7% in assay [8]; 42% in assay [9]; 9% in assay [10]; 42% in assay [11]; 38% in [12]. Besides, the residual activity was 58% in [13]; 57% in assay [14]; 9% in assay [15]; 53% in assay [16]; 71% in [17]; 44% in [18]. For the same molecule, the residual activity in assay [19] worked out at 60%; in assay [20], 24%; in assay [21], 120%; in [22], 17%; in assay [23], 16%.

The term residual activity denotes the signal under treatment as a percentage of the control signal.
